Results taken from patent US9670213B2, “Pteridine ketone derivative and applications thereof as EGFR, BLK, and FLT3 inhibitor” (EAST CHINA UNIVERSITY OF SCIENCE AND TECHNOLOGY, priority 2012, dated 2017).

Assays:
Assay type in all cases: biochemical
IGF1R = IGF1R (Homo sapiens (Human), UniProt P08069); assay: Kinase selectivity analysis (Caliper mobility shift assay); conditions: for inhibition at 1 µM: read-out: % inhibition (1 μM), 1 μM; for inhibition at 10 µM: read-out: % inhibition (10 μM), 10 μM
Method: (§1) Kinase selectivity analysis: kinase selectivity experiment was performed by Shanghai ChemPartner using Caliper assay screening platform. All of kinases and other materials were purchased from commercial companies.
(§2) 3. Preparation of assay plate: 5 μL of solution from each well of the 96-well temporary plate was added into a 384-well plate, and the experiment was independently repeated.
(§3) 5. Caliper readings: experimental data were collected on Caliper.
(§4) 6. Curve fitting: 1) conversion data were replicated from Caliper program. 2) the conversion value was converted into inhibition rate, inhibition rate %=(maximum−conversion value)/(maximum−minimum)*100, wherein “maximum” represents DMSO control, and minimum represents the low control.

FGFR3 = FGFR3 (Homo sapiens (Human), UniProt P22607); assay: as above; conditions: for inhibition at 1 µM: read-out: % inhibition (1 μM), FGFR3, 1 μM; for inhibition at 10 µM: read-out: % inhibition (10 μM), FGFR3, 10 μM
Method: as §1, §2, §3, §4

ABL = ABL (Homo sapiens (Human), UniProt P00519); assay: as above; conditions: for inhibition at 1 µM: read-out: % inhibition (1 μM), 1 μM; for inhibition at 10 µM: read-out: % inhibition (10 μM), 10 μM
Method: as §1, §2, §3, §4

LCK = LCK (Homo sapiens (Human), UniProt P06239); assay: as above; conditions: for inhibition at 1 µM: read-out: % inhibition (1 μM), 1 μM; for inhibition at 10 µM: read-out: % inhibition (10 μM), 10 μM
Method: as §1, §2, §3, §4

PKACa = PKACa (Homo sapiens (Human), UniProt P17612); assay: as above; conditions: for inhibition at 1 µM: read-out: % inhibition (1 μM), 1 μM; for inhibition at 10 µM: read-out: % inhibition (10 μM), 10 μM
Method: as §1, §2, §3, §4

EGFR-L858R = EGFR-L858R (Homo sapiens (Human), UniProt P00533, L858R); assay: In vitro EGFR kinase activity assay (Z'-Lyte); conditions: read-out: Inhibitory activity on EGFR kinase (IC50, nM) L858R;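 note: Cell-free kinase reaction with peptide substrate and ATP, 1.5 h at room temperature, then development step cleaving non-phosphorylated peptide, 10-point dilution series 0.051–1000 nM, phosphopeptide as 100% phosphorylation control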
EGFR-L858R, sequence (P00533 25-1210 L858R): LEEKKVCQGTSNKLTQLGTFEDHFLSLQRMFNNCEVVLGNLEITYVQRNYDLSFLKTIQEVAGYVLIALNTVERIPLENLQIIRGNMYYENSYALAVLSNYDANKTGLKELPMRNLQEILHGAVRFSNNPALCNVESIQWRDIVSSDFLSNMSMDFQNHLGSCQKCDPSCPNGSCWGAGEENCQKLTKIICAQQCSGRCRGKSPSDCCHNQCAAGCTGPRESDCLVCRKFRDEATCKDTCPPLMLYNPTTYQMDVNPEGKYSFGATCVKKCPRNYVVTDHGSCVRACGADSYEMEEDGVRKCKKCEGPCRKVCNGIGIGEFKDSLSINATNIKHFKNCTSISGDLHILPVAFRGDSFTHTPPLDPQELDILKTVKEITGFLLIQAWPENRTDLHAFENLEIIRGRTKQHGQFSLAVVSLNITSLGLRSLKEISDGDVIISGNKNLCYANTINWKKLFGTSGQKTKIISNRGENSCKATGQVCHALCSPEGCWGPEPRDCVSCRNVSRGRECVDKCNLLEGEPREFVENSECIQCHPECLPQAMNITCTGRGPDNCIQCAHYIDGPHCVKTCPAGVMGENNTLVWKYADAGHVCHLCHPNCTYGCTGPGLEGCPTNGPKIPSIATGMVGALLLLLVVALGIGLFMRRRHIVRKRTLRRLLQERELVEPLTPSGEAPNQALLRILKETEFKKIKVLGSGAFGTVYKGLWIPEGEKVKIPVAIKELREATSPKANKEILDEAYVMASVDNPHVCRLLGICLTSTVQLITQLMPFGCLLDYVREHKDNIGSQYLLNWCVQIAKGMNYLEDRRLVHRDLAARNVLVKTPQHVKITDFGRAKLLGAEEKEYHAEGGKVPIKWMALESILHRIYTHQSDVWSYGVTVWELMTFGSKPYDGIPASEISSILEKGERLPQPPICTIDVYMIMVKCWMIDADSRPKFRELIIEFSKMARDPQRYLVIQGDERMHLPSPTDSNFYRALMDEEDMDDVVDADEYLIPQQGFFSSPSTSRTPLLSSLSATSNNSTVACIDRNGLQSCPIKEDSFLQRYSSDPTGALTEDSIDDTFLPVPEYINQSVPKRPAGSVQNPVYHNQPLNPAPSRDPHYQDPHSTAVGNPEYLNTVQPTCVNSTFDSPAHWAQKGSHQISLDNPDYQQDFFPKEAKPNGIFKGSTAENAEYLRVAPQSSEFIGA
Method: Inhibitory effects in vitro of the compounds provided in the present invention on EGFR kinase activity was tested as follows:
10 concentration gradients, from 5.1×10^−11 mol/L to 1.0×10^−6 mol/L, were set for all of the compounds to be tested.
10 μL of kinase reaction system comprised 2.5 μL of compound solution, 5 μL of Kinase/peptide mixture, and 2.5 μL of ATP solution. 5 μL of phosphopeptide solution was used in place of kinase/peptide mixture as 100% phosphorylation control. […] After thoroughly mixing the solution within the plate, the plate was incubated at room temperature for 1.5 hours. 5 μL of DevelopmentSolution was added into each well, and then the plate was incubated at room temperature for another 1 hour, and non-phosphorylated peptide was cleaved within this period. Finally, the reaction was quenched by adding 5 μL of Stop Reagent. The Plate was measured with EnVision Multilabel Reader (Perkin Elmer). Experimental data were calculated by using GraphPad Prism version 4.0. Each experiment was repeated more than three times.

FGFR3, sequence (P22607 23-806, species assumed): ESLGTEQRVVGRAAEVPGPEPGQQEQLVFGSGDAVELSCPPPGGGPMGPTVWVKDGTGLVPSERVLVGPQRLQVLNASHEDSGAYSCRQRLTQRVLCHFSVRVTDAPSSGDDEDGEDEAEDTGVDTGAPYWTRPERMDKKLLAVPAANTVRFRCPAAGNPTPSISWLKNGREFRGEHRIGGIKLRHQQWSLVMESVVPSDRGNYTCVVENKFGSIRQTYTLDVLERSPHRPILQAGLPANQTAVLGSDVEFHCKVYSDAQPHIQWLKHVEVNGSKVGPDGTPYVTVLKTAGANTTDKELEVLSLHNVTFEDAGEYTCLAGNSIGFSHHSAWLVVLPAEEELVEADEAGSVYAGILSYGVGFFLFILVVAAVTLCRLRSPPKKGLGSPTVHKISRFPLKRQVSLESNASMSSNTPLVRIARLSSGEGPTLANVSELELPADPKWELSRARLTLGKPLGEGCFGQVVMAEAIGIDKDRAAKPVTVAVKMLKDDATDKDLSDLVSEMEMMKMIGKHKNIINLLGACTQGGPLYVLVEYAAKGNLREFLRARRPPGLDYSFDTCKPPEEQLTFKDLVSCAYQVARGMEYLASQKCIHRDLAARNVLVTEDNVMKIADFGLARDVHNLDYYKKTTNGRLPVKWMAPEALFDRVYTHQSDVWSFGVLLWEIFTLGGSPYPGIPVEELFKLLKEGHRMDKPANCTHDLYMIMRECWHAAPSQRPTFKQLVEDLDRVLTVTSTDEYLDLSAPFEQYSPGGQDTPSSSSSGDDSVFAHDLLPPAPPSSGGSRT
ABL, sequence (P00519 whole entry, species assumed): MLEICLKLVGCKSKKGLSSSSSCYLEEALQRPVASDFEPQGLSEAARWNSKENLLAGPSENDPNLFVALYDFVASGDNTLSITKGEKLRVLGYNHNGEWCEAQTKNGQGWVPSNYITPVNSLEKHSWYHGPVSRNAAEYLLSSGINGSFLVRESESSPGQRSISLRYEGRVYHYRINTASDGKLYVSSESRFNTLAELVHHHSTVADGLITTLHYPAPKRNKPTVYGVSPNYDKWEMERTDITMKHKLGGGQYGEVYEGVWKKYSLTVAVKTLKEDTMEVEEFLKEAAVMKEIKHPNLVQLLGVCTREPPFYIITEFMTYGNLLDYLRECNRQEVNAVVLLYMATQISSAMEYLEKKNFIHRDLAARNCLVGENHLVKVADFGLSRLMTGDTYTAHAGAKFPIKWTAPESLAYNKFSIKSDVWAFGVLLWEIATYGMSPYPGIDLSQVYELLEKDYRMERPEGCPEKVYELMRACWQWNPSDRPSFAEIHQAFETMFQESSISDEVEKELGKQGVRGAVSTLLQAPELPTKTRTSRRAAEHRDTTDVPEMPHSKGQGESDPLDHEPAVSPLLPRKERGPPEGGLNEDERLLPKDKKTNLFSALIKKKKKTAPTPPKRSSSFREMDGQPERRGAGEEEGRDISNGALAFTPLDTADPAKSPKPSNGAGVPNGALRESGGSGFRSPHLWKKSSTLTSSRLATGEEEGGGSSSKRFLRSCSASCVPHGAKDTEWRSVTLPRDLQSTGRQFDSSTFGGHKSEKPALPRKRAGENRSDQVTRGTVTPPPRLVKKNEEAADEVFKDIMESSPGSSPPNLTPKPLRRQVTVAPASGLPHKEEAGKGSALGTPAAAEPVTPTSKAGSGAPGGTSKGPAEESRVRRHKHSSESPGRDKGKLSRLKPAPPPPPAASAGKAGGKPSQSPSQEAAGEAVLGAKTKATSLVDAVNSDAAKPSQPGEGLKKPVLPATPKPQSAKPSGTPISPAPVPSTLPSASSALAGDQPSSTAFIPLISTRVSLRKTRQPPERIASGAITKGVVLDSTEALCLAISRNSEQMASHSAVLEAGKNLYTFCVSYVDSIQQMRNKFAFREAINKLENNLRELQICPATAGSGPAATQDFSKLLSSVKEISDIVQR
IGF1R, sequence (P08069 31-1367, species assumed): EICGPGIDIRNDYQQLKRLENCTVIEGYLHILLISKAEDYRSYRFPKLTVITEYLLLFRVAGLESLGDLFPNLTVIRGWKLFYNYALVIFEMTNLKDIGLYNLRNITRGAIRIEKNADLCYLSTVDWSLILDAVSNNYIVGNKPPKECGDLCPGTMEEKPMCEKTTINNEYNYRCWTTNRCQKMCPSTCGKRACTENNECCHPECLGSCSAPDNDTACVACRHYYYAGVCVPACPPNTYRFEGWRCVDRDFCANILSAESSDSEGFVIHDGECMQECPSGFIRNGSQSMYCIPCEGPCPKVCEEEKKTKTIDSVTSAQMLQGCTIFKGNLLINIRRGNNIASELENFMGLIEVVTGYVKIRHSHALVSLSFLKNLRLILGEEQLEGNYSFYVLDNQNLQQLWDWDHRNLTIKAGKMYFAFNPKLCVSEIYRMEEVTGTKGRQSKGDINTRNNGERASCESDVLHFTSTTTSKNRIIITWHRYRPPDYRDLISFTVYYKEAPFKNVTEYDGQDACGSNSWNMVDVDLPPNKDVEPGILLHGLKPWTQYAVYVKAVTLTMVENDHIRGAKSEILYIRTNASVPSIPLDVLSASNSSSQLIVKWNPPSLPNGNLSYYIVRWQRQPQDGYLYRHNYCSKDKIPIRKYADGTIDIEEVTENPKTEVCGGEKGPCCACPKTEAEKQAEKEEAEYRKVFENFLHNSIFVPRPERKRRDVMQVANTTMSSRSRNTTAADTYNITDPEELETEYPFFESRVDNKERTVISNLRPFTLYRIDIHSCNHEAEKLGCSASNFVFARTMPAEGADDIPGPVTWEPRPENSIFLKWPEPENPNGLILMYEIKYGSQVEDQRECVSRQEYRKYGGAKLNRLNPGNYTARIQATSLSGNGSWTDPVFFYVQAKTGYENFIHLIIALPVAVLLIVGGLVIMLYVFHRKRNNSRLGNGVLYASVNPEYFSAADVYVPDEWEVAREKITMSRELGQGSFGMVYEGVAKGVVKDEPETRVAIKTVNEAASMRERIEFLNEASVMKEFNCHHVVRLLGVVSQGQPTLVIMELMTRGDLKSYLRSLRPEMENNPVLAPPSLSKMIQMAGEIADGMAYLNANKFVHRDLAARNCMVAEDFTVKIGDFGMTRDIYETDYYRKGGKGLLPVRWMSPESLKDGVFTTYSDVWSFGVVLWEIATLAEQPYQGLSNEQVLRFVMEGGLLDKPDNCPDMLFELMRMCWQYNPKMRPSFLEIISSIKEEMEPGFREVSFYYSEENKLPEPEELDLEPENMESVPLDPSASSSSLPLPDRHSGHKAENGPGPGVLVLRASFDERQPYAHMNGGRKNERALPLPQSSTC
LCK, sequence (P06239 whole entry, species assumed): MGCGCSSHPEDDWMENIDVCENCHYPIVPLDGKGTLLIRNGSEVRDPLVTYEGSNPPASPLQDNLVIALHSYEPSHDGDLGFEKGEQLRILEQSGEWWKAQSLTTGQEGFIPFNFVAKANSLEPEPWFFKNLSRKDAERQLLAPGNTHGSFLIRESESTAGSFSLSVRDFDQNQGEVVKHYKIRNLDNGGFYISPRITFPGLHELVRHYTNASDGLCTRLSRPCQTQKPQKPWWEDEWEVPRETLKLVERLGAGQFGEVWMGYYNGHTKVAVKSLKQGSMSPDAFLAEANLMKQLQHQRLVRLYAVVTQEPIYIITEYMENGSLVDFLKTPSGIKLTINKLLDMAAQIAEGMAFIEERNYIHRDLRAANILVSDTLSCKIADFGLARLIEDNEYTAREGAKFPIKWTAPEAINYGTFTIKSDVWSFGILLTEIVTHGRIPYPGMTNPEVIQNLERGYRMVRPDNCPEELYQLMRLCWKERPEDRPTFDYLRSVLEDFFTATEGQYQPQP

Row | SMILES | inhibition at 1 µM (IGF1R) [%] | inhibition at 10 µM (IGF1R) [%] | inhibition at 1 µM (FGFR3) [%] | inhibition at 10 µM (FGFR3) [%] | inhibition at 1 µM (ABL) [%] | inhibition at 10 µM (ABL) [%] | inhibition at 1 µM (LCK) [%] | inhibition at 10 µM (LCK) [%] | inhibition at 1 µM (PKACa) [%] | inhibition at 10 µM (PKACa) [%] | IC50 (EGFR-L858R) [nM]
1 | C=CC(=O)Nc1cccc(-n2c(=O)cnc3cnc(Nc4ccc(N5CCN(C)CC5)cc4)nc32)c1 [Compound 020, N-(3-(2-(4-(4-methyl-1-piperazinyl)-phenylamino)-7-oxo-8(7H)-pteridin-yl)phenyl) acrylamide] | 21 | 36 | 14 | 33 | 11 | 39 | 18 | 73 | 15 | 4.7 | 1.2
2 | C=CC(=O)Nc1cccc(-n2c(=O)cnc3cnc(Nc4ccc(N5CCN(C)CC5)cc4OC)nc32)c1 [Compound 032, N-(3-(2-(2-methoxy-4-(4-methyl-1-piperazinyl)-phenylamino)-7-oxo-8(7H)-pteridin-yl)phenyl)acrylamide] | 15 | 37 | 11 | 13 | 5.8 | 13 | 14 | 54 | 6.9 | 4 | 2.36
